{"source": "PubChem BioAssay AID1259409", "about": "(Chemical Carcinogenesis Research Information System (CCRIS), 2018)", "origin": "cited, not measured here", "tested_on": "rodent chemically induced tumor inhibition, incidence and multiplicity", "experiment": "CCRIS tumor inhibitor studies", "data": [{"compound": "Cn1c(=O)c2c(ncn2C)n(C)c1=O", "values": [{"measurement": "tumour outcome (control, treated, inhibition, significance)", "setting": "Carcinogen: DIETHYLNITROSAMINE, 55-18-5, Dose [Inhibitor]: 0, 600 MG/L IN DRINKING WATER BEGINNING 3 D PRIOR TO FIRST CARCINOGEN DOSE AND CONTINUING TO 14 D POST LAST CARCINOGEN D, Route [Inhibitor]: ORAL, Species: RAT, Strain/Sex: BD6/FEMALE, Target Tissue: Type of Lesion: ESOPHAGUS: TUMOR, Dose [Carcinogen]: 80 MG/KG BW 1/WK FOR 7 WK, Promoter: NONE USED", "result": "25%, 11%, 56%, not significant"}, {"measurement": "tumour outcome (control, treated, inhibition, significance)", "setting": "Carcinogen: DIETHYLNITROSAMINE, 55-18-5, Dose [Inhibitor]: 0, 600 MG/L IN DRINKING WATER BEGINNING 3 D PRIOR TO FIRST CARCINOGEN DOSE AND CONTINUING TO 14 D POST LAST CARCINOGEN D, Route [Inhibitor]: ORAL, Species: RAT, Strain/Sex: BD6/FEMALE, Target Tissue: Type of Lesion: ESOPHAGUS: TUMOR, Dose [Carcinogen]: 80 MG/KG BW 1/WK FOR 8 WK, Promoter: NONE USED", "result": "18%, 22%, -22%, not significant"}, {"measurement": "tumour outcome (control, treated, inhibition, significance)", "setting": "Carcinogen: DIETHYLNITROSAMINE, 55-18-5, Dose [Inhibitor]: 0, 600 MG/L IN DRINKING WATER BEGINNING 3 D PRIOR TO FIRST CARCINOGEN DOSE AND CONTINUING TO 14 D POST LAST CARCINOGEN D, Route [Inhibitor]: ORAL, Species: RAT, Strain/Sex: BD6/FEMALE, Target Tissue: Type of Lesion: LIVER: TUMOR, Dose [Carcinogen]: 80 MG/KG BW 1/WK FOR 7 WK, Promoter: NONE USED", "result": "64%, 56%, 13%, not significant"}, {"measurement": "tumour outcome (control, treated, inhibition, significance)", "setting": "Carcinogen: DIETHYLNITROSAMINE, 55-18-5, Dose [Inhibitor]: 0, 600 MG/L IN DRINKING WATER FOR DURATION OF STUDY BEGINNING 4 D POST CARCINOGEN TREATMENT (STUDY DURATION: 6 MO), Route [Inhibitor]: ORAL, Species: RAT, Strain/Sex: BD6/FEMALE, Target Tissue: Type of Lesion: LIVER: TUMOR, Dose [Carcinogen]: 80 MG/KG BW 1/WK FOR 9 WK, Promoter: NONE USED", "result": "100%, 100%, 0%, not significant"}, {"measurement": "tumour outcome (control, treated, inhibition, significance)", "setting": "Carcinogen: DIETHYLNITROSAMINE, 55-18-5, Dose [Inhibitor]: 0, 600 MG/L IN DRINKING WATER FOR DURATION OF STUDY BEGINNING 4 D POST CARCINOGEN TREATMENT(STUDY DURATION: 6 MO), Route [Inhibitor]: ORAL, Species: RAT, Strain/Sex: BD6/FEMALE, Target Tissue: Type of Lesion: ESOPHAGUS: TUMOR, Dose [Carcinogen]: 80 MG/KG BW 1/WK FOR 9 WK, Promoter: NONE USED", "result": "29%, 21%, 28%, not significant"}, {"measurement": "tumour outcome (control, treated, inhibition, significance)", "setting": "Carcinogen: DIETHYLNITROSAMINE, 55-18-5, Dose [Inhibitor]: 0, 600 MG/L IN DRINKING WATER FOR DURATION OF STUDY BEGINNING 7 D PRIOR TO CARCINOGEN TREATMENT (STUDY DURATION: 6 MO), Route [Inhibitor]: ORAL, Species: RAT, Strain/Sex: BD6/FEMALE, Target Tissue: Type of Lesion: ESOPHAGUS: TUMOR, Dose [Carcinogen]: 80 MG/KG BW 1/WK FOR 5 WK, Promoter: NONE USED", "result": "6%, 11%, -83%, not significant"}, {"measurement": "tumour outcome (control, treated, inhibition, significance)", "setting": "Carcinogen: DIETHYLNITROSAMINE, 55-18-5, Dose [Inhibitor]: 0, 600 MG/L IN DRINKING WATER FOR DURATION OF STUDY BEGINNING 7 D PRIOR TO CARCINOGEN TREATMENT (STUDY DURATION: 6 MO), Route [Inhibitor]: ORAL, Species: RAT, Strain/Sex: BD6/FEMALE, Target Tissue: Type of Lesion: LIVER: TUMOR, Dose [Carcinogen]: 80 MG/KG BW 1/WK FOR 5 WK, Promoter: NONE USED", "result": "44%, 41%, 7%, not significant"}, {"measurement": "tumour outcome (control, treated, inhibition, significance)", "setting": "Carcinogen: DIETHYNITROSAMINE, 55-18-5, Dose [Inhibitor]: 0, 600 MG/L IN DRINKING WATER BEGINNING 3 D PRIOR TO FIRST CARCINOGEN DOSE AND CONTINUING TO 14 D POST LAST CARCINOGEN D, Route [Inhibitor]: ORAL, Species: RAT, Strain/Sex: BD6/FEMALE, Target Tissue: Type of Lesion: LIVER: TUMOR, Dose [Carcinogen]: 80 MG/KG BW 1/WK FOR 8 WK, Promoter: NONE USED", "result": "82%, 72%, 12%, not significant"}, {"measurement": "tumour outcome (control, treated, inhibition, significance)", "setting": "Carcinogen: N,N-DIETHYLNITROSAMINE, 55-18-5, Dose [Inhibitor]: 600 MG/L IN DRINKING WATER DAILY STARTING 3 D BEFORE START OF CARCINOGEN INJECTION AND CONTINUING UNTIL 2 WK AFTER LAST, Route [Inhibitor]: ORAL, Species: RAT, Strain/Sex: BDIV AND WISTAR/MALE, Target Tissue: Type of Lesion: LIVER: TUMOR, Dose [Carcinogen]: 80 MG/KG BW IN 0.2 ML 0.9% SALINE 1/WK FOR 10 WK, Promoter: NONE USED", "result": "18/22 (82%), 12/18 (67%), 18%, not calculated"}, {"measurement": "tumour outcome (control, treated, inhibition, significance)", "setting": "Carcinogen: N-METHYL-N'-NITRO-N-NITROSOGUANIDINE, 70-25-7, Dose [Inhibitor]: 0, 0.25% IN DRINKING WATER FOR 32 WK BEGINNING POST CARCINOGEN TREATMENT (STUDY DURATION: 40 WK), Route [Inhibitor]: ORAL, Species: RAT, Strain/Sex: WISTAR/MALE, Target Tissue: Type of Lesion: GLANDULAR STOMACH (PYLORUS): ADENOCARCINOMA, Dose [Carcinogen]: 100 PPM IN DRINKING WATER FOR 8 WK, Promoter: SODIUM CHLORIDE, 7647-14-5", "result": "4/29 (14%), 0/28 (0%), 100%, p<0.05"}, {"measurement": "tumour outcome (control, treated, inhibition, significance)", "setting": "Carcinogen: N-METHYL-N-NITROSOUREA, 684-93-5, Dose [Inhibitor]: 0, 500 MG/L IN DRINKING WATER BEGINNING AT 60 D OF AGE AND CONTINUING FOR DURATION OF STUDY (STUDY DURATION: 26 WK), Route [Inhibitor]: ORAL, Species: RAT, Strain/Sex: SPRAGUE-DAWLEY/FEMALE, Target Tissue: Type of Lesion: MAMMARY GLAND: CARCINOMA, Dose [Carcinogen]: 2.5 MG/100 G BW ONCE AT 57 D OF AGE, Promoter: NONE USED", "result": "34/40 (85%), 31/40 (78%), 8%, not significant"}, {"measurement": "tumour outcome (control, treated, inhibition, significance)", "setting": "Carcinogen: N-METHYL-N-NITROSOUREA, 684-93-5, Dose [Inhibitor]: 0, 500 UG/L IN DRINKING WATER BEGINNING AT 29 D OF AGE AND CONTINUING TO D 60 OF AGE (STUDY DURATION: 30 WK), Route [Inhibitor]: ORAL, Species: RAT, Strain/Sex: SPRAGUE-DAWLEY, Target Tissue: Type of Lesion: MAMMARY GLAND: CARCINOMA, Dose [Carcinogen]: 2.5 MG/100 G BW ONCE AT 57 D OF AGE, Promoter: NONE USED", "result": "34/40 (85%), 32/40 (80%), 6%, not significant"}, {"measurement": "tumour outcome (control, treated, inhibition, significance)", "setting": "Carcinogen: SUBCUTANEOUS, Dose [Inhibitor]: 4-(METHYLNITROSAMINO)-1-(3-PYRIDYL-1-BUTANONE), 64091-91-4, Route [Inhibitor]: 0, 680 PPM IN DRINKING WATER FOR 22 WK BEGINNING 1 WK PRIOR TO CARCINOGEN TREATMENT (STUDY DURATION: 101 WK), Species: RAT, Strain/Sex: ORAL, Target Tissue: Type of Lesion: LIVER :TUMOR, Dose [Carcinogen]: NONE USED", "result": "11/32 (34%), 8/20 (40%), -18%, not significant"}, {"measurement": "tumour outcome (control, treated, inhibition, significance)", "setting": "Carcinogen: URETHANE, 51-79-6, Dose [Inhibitor]: 0.05 UMOL/G BW GIVEN AT 6 HR INTERVALS DURING THE PERIOD OF 0 TO 36 HR AFTER CARCINOGEN TREATMENT FOR 7 INJECTIONS FOLLO, Route [Inhibitor]: INTRAPERITONEAL, Species: MOUSE, Strain/Sex: ICR/FEMALE, Target Tissue: Type of Lesion: LUNG: PAPILLARY ADENOMA, Dose [Carcinogen]: 0.1 MG/G BW SINGLE INJECTION, Promoter: NONE USED", "result": "31/59 (53%), 7/32 (22%), 58%, p<0.01"}]}]}
